Test results published in patent publication US20070049518A1, “Novel method of treatment of inflammatory skin conditions” (priority 2005, published 2007).

Key:
[1] = target: T1, purified aureolysin type I (Staphylococcus aureus, UniProt P81177); assay: biochemical
T1 construct: purchased BioCentrum Ltd

[2] = target: T2, purified aureolysin type II (Staphylococcus aureus, UniProt P81177); assay: Aureolysin enzyme inhibition assay, type II; type: biochemical; conditions: pH 6.8, 37° C., 1 hour; read-out: IC50 value Aureolysin type II
T2 sequence (P81177 1-509): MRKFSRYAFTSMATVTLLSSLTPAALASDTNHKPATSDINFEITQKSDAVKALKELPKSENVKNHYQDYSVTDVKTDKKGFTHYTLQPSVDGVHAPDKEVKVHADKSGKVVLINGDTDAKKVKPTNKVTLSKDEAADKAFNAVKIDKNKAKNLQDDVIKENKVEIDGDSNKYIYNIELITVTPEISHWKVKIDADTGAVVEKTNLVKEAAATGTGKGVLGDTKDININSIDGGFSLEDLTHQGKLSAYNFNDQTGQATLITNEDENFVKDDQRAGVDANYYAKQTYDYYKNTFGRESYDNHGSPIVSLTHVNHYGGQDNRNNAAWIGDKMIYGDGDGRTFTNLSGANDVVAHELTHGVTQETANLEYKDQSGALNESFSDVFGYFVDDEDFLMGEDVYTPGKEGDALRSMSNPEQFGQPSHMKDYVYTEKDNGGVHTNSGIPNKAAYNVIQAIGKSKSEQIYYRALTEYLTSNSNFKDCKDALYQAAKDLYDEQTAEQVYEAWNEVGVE

human MMP-1 = target: T3, human MMP-1 (Homo sapiens, UniProt P03956); assay: MMP enzyme inhibition assay, MMP-1; type: biochemical; conditions: pH 7.5, 37° C., 1 hour
T3 construct: purchased Calbiochem
T3 sequence (P03956 100-469): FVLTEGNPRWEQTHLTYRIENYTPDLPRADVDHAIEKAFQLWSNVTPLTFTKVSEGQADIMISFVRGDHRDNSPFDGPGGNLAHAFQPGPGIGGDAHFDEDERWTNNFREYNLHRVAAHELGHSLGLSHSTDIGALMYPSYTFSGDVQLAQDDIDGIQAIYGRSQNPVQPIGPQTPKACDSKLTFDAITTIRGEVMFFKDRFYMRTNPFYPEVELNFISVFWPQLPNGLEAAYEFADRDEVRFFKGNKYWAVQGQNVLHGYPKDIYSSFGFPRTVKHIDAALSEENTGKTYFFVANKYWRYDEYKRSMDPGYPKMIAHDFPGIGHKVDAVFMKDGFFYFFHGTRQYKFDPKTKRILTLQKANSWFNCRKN

human MMP-8 = target: T4, human MMP-8 (Homo sapiens, UniProt P22894); assay: MMP enzyme inhibition assay, MMP-8; type: biochemical; conditions: pH 7.5, 37° C., 1 hour
T4 construct: purchased Calbiochem

human MMP-9 = target: T5, human MMP-9 (Homo sapiens, UniProt P14780); assay: MMP enzyme inhibition assay, MMP-9; type: biochemical; conditions: pH 7.5, 37° C., 1 hour
T5 construct: purchased Calbiochem

[3] = target: T6, metalloprotease (aureolysin) activity in Staphylococcus aureus 8325-4 culture supernatants (Staphylococcus aureus, UniProt P81177); assay: Metalloprotease activity in S. aureus culture supernatants; type: biochemical
T6 construct: 4 μl S. aureus culture supernatant; endogenous in cells; host or cells: Staphylococcus aureus 8325-4 (culture supernatant)
Protocol: The culture was then centrifuged to remove the cells and the supernatant stored at −70° C. for subsequent use. […] Activity was expressed as the rate of increase in fluorescence as a function of time.

S. aureus 8325-4 = assay: S. aureus viability, viable cell counts; type: cell-based, Staphylococcus aureus; conditions: 50 μM compound; 16 h at 37° C.
Protocol: Brain heart infusion medium (5 ml; Becton Dickinson and Co.) containing 10% skimmed milk and 1% (v/v) DMSO vehicle ±50 μM compound was inoculated with S. aureus 8325-4 (approximately 10^7 cells in tryptic soy broth) and incubated for 16 h at 37° C./220 rpm. Duplicate samples (0.1 ml) were then removed from each culture, diluted into PBS, spread onto brain heart infusion agar (1.5%) and incubated at 37° C.

recombinant human ADAM17 = target: T7, recombinant human ADAM17 (Homo sapiens, UniProt P78536); assay: Selectivity profile, ADAM17; type: biochemical
T7 construct: purchased R&D Systems Inc

staphopain A = target: T8, staphopain A (Staphylococcus aureus, UniProt P81297); assay: Selectivity profile, staphopain A; type: biochemical; conditions: read-out: inhibition at 0.1 mM, Staphopain A
T8 construct: purchased BioCentrum Ltd
Protocol: (§1) Inhibitory activity was tested in reaction mixtures (0.1 ml) containing 2% (v/v) DMSO vehicle±compound plus additions as follows. V8 protease: 90 mM MOPS (sodium) buffer pH 7.0, […] calcium chloride, 0.045% Brij 35, 10 μM Mca-Leu-Glu-Val-Asp-Gly-Trp-Lys(Dnp)-amide (Bachem) and V8 (BioCentrum Ltd; 30 ng). Staphopain A and B: 90 mM MOPS (sodium) buffer pH 7.0, 1.8 mM cysteine-HCl (pH-adjusted with NaOH), 0.045% Brij 35, 0.1 mM Z-Phe-Arg-AMC hydrochloride (Bachem) and staphopain A or B (BioCentrum Ltd; 30 ng). Human kallikrein 5: 0.1M sodium phosphate buffer pH 8.0, 0.045% Brij 35, 0.1 mM Boc-Val-Pro-Arg-AMC (Sigma) and recombinant human kallikrein 5 (R&D Systems Inc; 6 ng). Human kallikrein 7: 72 mM Tris-HCl pH 8.0, 0.033% Brij 35, 1.2 mM S-2586 (Chromogenix Instrumentation Laboratory SpA) and recombinant human kallikrein 7 (R&D Systems Inc; 0.6 μg) that had been thermolysin-activated according to the manufacturer's instructions. Human angiotensin-converting enzyme (ACE): 45 mM MES (sodium) buffer pH 6.5, 0.045% Brij 35, 10 μM Mca-[…]Dnp)-OH(R&D Systems Inc) and recombinant human ACE (R&D Systems Inc; 1.3 ng). Human cathepsin D: 0.1M sodium acetate buffer pH 3.5, 0.2M sodium chloride, 0.045% Brij 35, 10 μM Mca-Pro-Leu-Gly-Leu-Dap(Dnp)-Ala-Arg-amide (Bachem) and recombinant human cathepsin D (R&D Systems Inc; 8 ng) activated according to the manufacturer's instructions. […]

V8 protease = target: T9, V8 protease (Staphylococcus aureus, UniProt P0C1U8); assay: Selectivity profile, V8 protease; type: biochemical; conditions: read-out: inhibition at 0.1 mM, V8 protease
T9 construct: purchased BioCentrum Ltd
Protocol: as §1

T9 sequence (P0C1U8 69-336): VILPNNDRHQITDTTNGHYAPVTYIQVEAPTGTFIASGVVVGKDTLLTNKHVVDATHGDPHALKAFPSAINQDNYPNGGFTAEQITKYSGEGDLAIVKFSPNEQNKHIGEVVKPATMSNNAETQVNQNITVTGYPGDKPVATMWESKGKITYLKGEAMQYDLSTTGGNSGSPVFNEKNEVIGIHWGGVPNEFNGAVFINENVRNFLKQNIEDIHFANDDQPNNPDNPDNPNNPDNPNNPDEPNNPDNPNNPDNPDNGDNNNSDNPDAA
T7 sequence (P78536 215-824): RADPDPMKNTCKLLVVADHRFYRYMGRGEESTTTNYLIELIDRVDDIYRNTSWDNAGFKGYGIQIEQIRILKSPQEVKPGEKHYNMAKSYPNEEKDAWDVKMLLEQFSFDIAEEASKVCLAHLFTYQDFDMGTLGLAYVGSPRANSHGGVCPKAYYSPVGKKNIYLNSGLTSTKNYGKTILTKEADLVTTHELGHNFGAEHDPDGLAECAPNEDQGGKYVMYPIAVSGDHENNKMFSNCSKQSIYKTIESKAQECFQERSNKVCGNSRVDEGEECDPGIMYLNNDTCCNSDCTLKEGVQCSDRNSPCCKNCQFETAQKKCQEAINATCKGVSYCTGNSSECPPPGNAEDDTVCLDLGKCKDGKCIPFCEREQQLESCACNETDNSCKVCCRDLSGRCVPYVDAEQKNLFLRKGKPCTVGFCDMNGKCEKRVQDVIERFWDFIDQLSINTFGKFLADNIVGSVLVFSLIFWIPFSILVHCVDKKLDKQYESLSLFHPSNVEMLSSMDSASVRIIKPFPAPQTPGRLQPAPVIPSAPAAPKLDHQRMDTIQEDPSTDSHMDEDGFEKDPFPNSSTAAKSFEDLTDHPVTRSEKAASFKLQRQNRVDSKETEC
T5 sequence (P14780 94-707): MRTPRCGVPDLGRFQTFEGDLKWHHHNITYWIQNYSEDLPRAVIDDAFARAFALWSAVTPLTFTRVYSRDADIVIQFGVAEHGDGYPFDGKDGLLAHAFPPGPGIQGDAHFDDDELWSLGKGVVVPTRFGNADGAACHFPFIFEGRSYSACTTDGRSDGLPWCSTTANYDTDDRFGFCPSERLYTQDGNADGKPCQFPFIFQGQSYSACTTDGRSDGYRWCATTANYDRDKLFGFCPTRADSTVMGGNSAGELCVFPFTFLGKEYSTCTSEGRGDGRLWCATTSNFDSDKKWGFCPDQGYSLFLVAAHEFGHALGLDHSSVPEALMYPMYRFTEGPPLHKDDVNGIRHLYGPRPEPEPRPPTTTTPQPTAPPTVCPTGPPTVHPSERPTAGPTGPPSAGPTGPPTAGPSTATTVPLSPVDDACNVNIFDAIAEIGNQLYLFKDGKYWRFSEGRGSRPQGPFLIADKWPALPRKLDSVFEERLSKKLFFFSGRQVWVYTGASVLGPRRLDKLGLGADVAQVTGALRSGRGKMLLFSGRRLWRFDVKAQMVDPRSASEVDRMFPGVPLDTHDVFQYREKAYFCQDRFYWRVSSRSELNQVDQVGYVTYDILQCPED
T8 sequence (P81297 215-388): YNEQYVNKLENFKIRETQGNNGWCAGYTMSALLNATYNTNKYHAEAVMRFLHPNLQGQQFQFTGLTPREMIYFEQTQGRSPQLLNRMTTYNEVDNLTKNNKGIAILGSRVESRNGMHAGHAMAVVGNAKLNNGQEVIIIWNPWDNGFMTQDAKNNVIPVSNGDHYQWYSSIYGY
T4 sequence (P22894 101-467): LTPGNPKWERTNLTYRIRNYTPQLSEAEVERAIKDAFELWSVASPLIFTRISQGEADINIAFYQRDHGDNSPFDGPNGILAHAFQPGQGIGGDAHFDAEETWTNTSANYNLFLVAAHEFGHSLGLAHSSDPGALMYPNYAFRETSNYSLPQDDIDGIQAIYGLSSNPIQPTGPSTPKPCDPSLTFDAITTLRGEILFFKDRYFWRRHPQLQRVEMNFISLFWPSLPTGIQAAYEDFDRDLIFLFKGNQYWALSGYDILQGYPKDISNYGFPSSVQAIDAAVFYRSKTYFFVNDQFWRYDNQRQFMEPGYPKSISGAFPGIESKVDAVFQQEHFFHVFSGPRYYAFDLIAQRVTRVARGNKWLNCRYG

SMILES	IC50 [1]	IC50 [2]	IC50 (human MMP-1)	IC50 (human MMP-8)	IC50 (human MMP-9)	IC50 [3]	Viable cell counts, Cells/ml (S. aureus 8325-4)	IC50 (recombinant human ADAM17)	inhibition at 100 µM (staphopain A)	inhibition at 100 µM (V8 protease)
CNC(=O)[C@@H](NC(=O)[C@@H](CC(=O)NO)CC(C)C)C(C)(C)C [Compound 11, (R)—N1-((S)-3,3-dimethyl-1-(methylamino)-1-oxobutan-2-yl)-N4-hydroxy-2-isobutylsuccinamide]	1.3 µM	2.4 µM	0.0028 µM	0.0014 µM	0.0036 µM	3.7 µM	1.6 × 10^9 Cells/ml	0.025 µM	5%	0%
CNC(=O)[C@@H](NC(=O)[C@H](CC(=O)NO)CC(C)C)C(C)(C)C [Compound 12, (S)—N1-((S)-3,3-dimethyl-1-(methylamino)-1-oxobutan-2-yl)-N4-hydroxy-2-isobutylsuccinamide]	1.3 µM	2.2 µM	2.3 µM	1.4 µM	4.6 µM	4.3 µM	1.3 × 10^9 Cells/ml	79 µM	0%	0%
